We go through one molecule from US20260183396A1, “CXCR3 OVEREXPRESSION IN CAR-NK CELLS PRIMES MIGRATION/HOMING INTO THE TUMOR MICROENVIRONMENT” (DANA-FARBER CANCER INSTITUTE, INC., priority 2022, published 2026).

Type in all cases: cell-based, human
One data set concerns CXCL10. Description: CXCL10 release from MPM PDOTS/explants. Particulars: MPM PDOTS, specific samples. As to the method:
Patient-derived organotypic tumor spheroids (PDOTS). PDOTS were generated as previously described (Jenkins et al., Cancer Discov. 8:196-215 (2018); Aref et al., Lab Chip 18:3129-3143 (2018)). Briefly, fresh tumor specimens were minced in a 15 mL falcon tube in prewarmed to 37° C. full media (DMEM from Thermo Fisher Scientific+10% FBS)+100 U/mL collagenase type IV (Life Technologies) and 50 μg/mL dNase I (Roche) for approximately 20 minutes using sterile scissors and pipetting. Dissociated material was strained over 100-μm filter and 40-μm filters to generate S1 (>100 μm), S2 (40-100 μm), and S3 (<40 μm) spheroid fractions, which were subsequently maintained in ultralow-attachment (ULA) tissue culture plates (Corning). […] S2 fractions were used for ex vivo culture by resuspending them in type I rat tail collagen (Corning) at a concentration of 2.8 mg/mL prior to loading into the center gel region of the 3-D microfluidic culture device (AIM Biotech) and incubation for 40 minutes at 37° C. in humidity chambers to allow for polymerization. Collagen hydrogels containing PDOTS were hydrated with media with or without indicated treatments. TAK-676 was provided by Takeda and diluted in dH20. Recombinant human interferon beta (100 ng/ml; R&D Systems) was used as a positive control downstream of STING for STAT1 pathway activation. […]

A further data set deals with granzyme B. Description: Granzyme B ELISA, NK / MPM co-culture. To be noted: only in co-culture with MPM cells expressing STING. As for the experimental part:
Cytokine analysis. CXCL10 ELISA (R&D Systems DIP100) and granzyme B ELISA (R&D systems DY008) were performed according to manufacturer's instructions on conditioned media collected from cell culture. Cytokine analysis of conditioned media after 3 days of explant (S1) culture (FIG. 9B) utilized the MSD U-PLEX Viral Combo 1 assay (Hu: K15343K-2), which was performed according to manufacturer's instructions.

The next data set has as its system H226 MPM cells. The data set is described as follows: NK cell migration assay towards H226 spheroids. As for the experimental part: NK cell infiltration assay. Immune cell infiltration was assessed as previously described (Kitajima et al., Cancer Discov. 9:34-45 (2019); Mahadevan et al., Cancer Discov. 11:1952-1969 (2021)). Briefly, mesothelioma cancer cell spheroids (H2591, H2461, H226) were generated by seeding 5×10^5 cells in suspension in a ULA dish for 24 hours. […] Samples were then pelleted and resuspended in type I rat tail collagen (Corning) at a concentration of 2.5 mg/mL following the addition of 10×PBS with phenol red and pH adjustment using NaOH. pH 7.0-7.5 was confirmed using PANPEHA Whatman paper (Sigma-Aldrich). Cells and collagen were kept on ice to prevent polymerization. The spheroid-collagen suspension was then injected into the central gel region of the 3D DAX-1 microfluidic cell culture chip (AIM Biotech). Microfluidic devices were utilized as previously described (Aref et al., Lab Chip 18:3129-3143 (2018)), with a central region containing the cell-collagen mixture in a 3D microenvironment (3×10^4 cells H2591 and H2461, 2× 10^4 cells H226 in 10 μL), flanked by 2 media channels. After injection, collagen hydrogels containing cells were incubated for 40 minutes at 37° C. in humidity chambers, then hydrated with culture media, with labeled primary NK cells (ET ratio 2:1) added to one of the side channels. Primary NK cells were labeled with Cell Tracker Red (Thermo Fisher Scientific) following manufacturer's instructions. After 96 hours of incubation, viability staining of cancer cell spheroids and infiltrated immune cells was performed (20-minute incubation with 1 μg/mL solution of Propidium Iodide; Thermo Fisher Scientific). For the experiment with the CXCR3 neutralizing antibody (R&D MAB160), NK cells were pre-treated for 30 minutes prior to loading.
(§1) For quantification, images were captured on a Nikon Eclipse 80i fluorescence microscope equipped with Z-stack (Prior) and CoolSNAP CCD camera (Roper Scientific). Image capture and analysis was performed using NIS-Elements AR software package. Whole device images were achieved by stitching in multiple captures. Quantification of immune cell infiltration into the 3D tumor microenvironment was performed by measuring the total cell area of cell tracker dye in the entire gel region. For the experiment with the CXCR3 neutralizing antibody (R&D MAB160; FIG. 6B), staining was quantified in a square region in the center of the channel to focus on effects of CXCR3 ligands released by tumor cells. Percent dead cell quantification was performed as in PDOTS as described above.
Immune cell migration assays were performed as previously described (Kitajima et al., Cancer Discov. 9:34-45 (2019)). […]

The subject of the next data set is T-cells. Description: Immune cell toxicity assays, T-cells. As for the experimental part: Immune Cell Toxicity Assays. […] Following treatment, samples were stained with anti-CD45, anti-CD3, anti-CD4, anti-CD8, and anti-CD56 antibodies (Table 1), as well as Zombie Green live/dead (Biolegend 423111) and analyzed by flow cytometry as described above. Data were analyzed using FlowJo software version 10.5.3. As an orthogonal measure of viability, CellTiter-Glo was performed on primary T-cells and NK cells.
CellTiter-Glo luminescent cell viability assay. Cell viability was assessed using the CellTiter-Glo Luminescent Cell Viability assay (Promega, G7571) according to manufacturer's instructions. […] All conditions were tested in triplicate and plates were read on a Tecan Infinite Mplex Microplate Reader.

In another data set the test system is STING. Description: STING immunoblotting in NK cells and TILs. As to the method: Immunoblotting. […] Imaging of blots and was performed using the LI-COR Odyssey system.
For the next data set, the system named is H2591 MPM cells. Description: NK cell migration assay towards H2591 spheroids. As for the experimental part: NK cell infiltration assay. Immune cell infiltration was assessed as previously described (Kitajima et al., Cancer Discov. 9:34-45 (2019); Mahadevan et al., Cancer Discov. 11:1952-1969 (2021)). Briefly, mesothelioma cancer cell spheroids (H2591, H2461, H226) were generated by seeding 5×10^5 cells in suspension in a ULA dish for 24 hours. […] Samples were then pelleted and resuspended in type I rat tail collagen (Corning) at a concentration of 2.5 mg/mL following the addition of 10×PBS with phenol red and pH adjustment using NaOH. pH 7.0-7.5 was confirmed using PANPEHA Whatman paper (Sigma-Aldrich). Cells and collagen were kept on ice to prevent polymerization. […]
as §1, with “Image capture and analysis was performed using NIS-Elements AR software package. Whole device images were achieved by stitching in multiple captures.” left out, “above. […]” for “above.”

On to `Nc1ncnc2c1ncn2[C@@H]1O[C@@H]2COP(=O)([S-])O[C@@H]3[C@H](O)[C@@H](COP([O-])(=S)O[C@H]2[C@H]1O)O[C@H]3n1cnc2c(N)ncnc21.[Na+].[Na+]` (stereo partly drawn) [ADU-S100], for which the CXCL10 release result in the data set with CXCL10 was “induced CXCL10 release”. Also, the “granzyme release by NK cells” value in the data set on granzyme B is listed as “enhanced”. In the data set on H226 MPM cells, the “CAR-NK CXCR+ cell migration” value was “increased”, the “CAR-NK control cell migration” value is on record as “did not affect”, the “migration of cNK cells” value is recorded as “increased migration” and the “migration of cNK overexpressing CXCR3” value is reported as “decreased migration”. Also, the “cytotoxicity to T-cells by flow cytometry” value with T-cells (MPM tumor explants, increased from 24 to 72 hours) is “cytotoxic”. In addition, the “cytotoxicity in T-cells purified from peripheral blood” value in the data set with T-cells (with or without BCMA CAR) is given as “dose-dependent cytotoxicity”. Also, the “time within which STING was degraded” value in the data set on STING (NK cells) fell in the range of 3 to 6 h. Moreover, the “T-cell STING degradation” value with STING (T-cells, STING phosphorylated and activated) was “minimally degraded”. Moreover, in the data set with H2591 MPM cells, the “migration of cNK cells” value is “increased migration” and the “migration of cNK overexpressing CXCR3” value is “decreased migration”.
